In PMC10897476, “Pyridylpiperazine efflux pump inhibitor boosts in vivo antibiotic efficacy against K. pneumoniae” (EMBO Molecular Medicine, 2023):
Where “and” joins values, the source holds several entries; their conditions need not be identical. Equal values may be shown once. Where a SMILES comes first, the peptide text is derived from it.

Key:
Format in all cases: cell-based, Klebsiella pneumoniae
[1] = test system: K. pneumoniae AcrB^V448E; experiment: MIC of antibiotics with and without EPI (REMA), AcrB V448E mutant; conditions: K. pneumoniae-AcrB^V448E, Table 2
Procedure, shortened: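 K. pneumoniae ATCC 43816 carrying single chromosomal acrB or ramR mutations introduced by allelic exchange, diluted to OD600 = 0.001 in CAMHB with EPI at final 100 µM. Incubated 37 °C up to 20 h; viability by resazurin fluorescence (Ex 530/Em 590 nm).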

[2] = test system: K. pneumoniae ATCC 43816 (WT); experiment: Checkerboard assay levofloxacin x EPI, WT strain; conditions: for checkerboard growth readout: ATCC43816 WT, levofloxacin 0 ng/mL; for percentage resazurin turnover: individual replicates, listed as PABN; for Median REMA values (percentage resazurin turnover): median n=3
Procedure: (§1) MIC experiments were carried out according to the CLSI guidelines (CLSI [2023]). Overnight cultures were diluted to an OD600 = 0.001 in CAMHB followed by addition of efflux pump inhibitors (EPIs) at a final concentration of 100 µM. […] Plates were incubated at 37 °C for up to 20 h. Bacterial viability was evaluated using the resazurin microtitre assay (REMA) and measured by fluorescence using a Tecan Spaert multimode plate reader (Ex: 530 nm Em: 590 nm). MICs were defined as the concentration that prevented 90% of resazurin turnover compared to the non-treated bacteria.
(§2) Bacterial suspensions, incubation and plate readouts were carried out as described above.

[3] = test system: K. pneumoniae AcrB^V448E; experiment: Checkerboard assay levofloxacin x EPI, AcrB V448E mutant; conditions: for checkerboard growth readout: ATCC43816 AcrBV448E, levofloxacin 0 ng/mL; for Median REMA values / percentage resazurin turnover: Lev 0.00 ng/mL
Procedure: as §1, §2

[4] = test system: K. pneumoniae RamR^mut (K124*stop); experiment: Checkerboard assay levofloxacin x EPI, RamR mutant; conditions: for checkerboard growth readout: ATCC43816 ramRmut, levofloxacin 0 ng/mL
Procedure: as §1, §2

[5] = test system: K. pneumoniae AcrB^V448E RamR^mut; experiment: Checkerboard assay levofloxacin x EPI, double mutant; conditions: ATCC43816 AcrBV448E ramRmut, levofloxacin 0 ng/mL
Procedure: as §1, §2

SMILES: NC(N)=NCCC[C@H](NC(=O)[C@@H](N)Cc1ccccc1)C(=O)Nc1ccc2ccccc2c1 [PAβN] (HELM PEPTIDE1{F.R.[c1ccc2cc(N[*:1])ccc2c1]}$$$$V2.0)
- susceptibility of the strain to antibiotic boosting by the EPI, in words [1]: remained sensitive
- checkerboard growth readout ([2]; EPI 2.3 µM): 75
- checkerboard growth readout ([2]; EPI 4.7 µM): 87
- checkerboard growth readout ([2]; EPI 9.4 µM): 110
- checkerboard growth readout ([2]; EPI 19 µM): 116
- checkerboard growth readout ([2]; EPI 38 µM): 154
- checkerboard growth readout ([2]; EPI 75 µM): 143
- checkerboard growth readout ([2]; EPI 150 µM): 129
- checkerboard growth readout ([2]; EPI 300 µM): 135
- percentage resazurin turnover ([2]; Lev 0.00 ng/mL + EPI 2.34 uM): 100% and 75% and 71%
- Median REMA values (percentage resazurin turnover) ([2]; Lev 0.00 ng/mL + EPI 2.34 uM): 75%
- percentage resazurin turnover ([2]; Lev 0.00 ng/mL + EPI 4.69 uM): 108% and 87% and 69%
- Median REMA values (percentage resazurin turnover) ([2]; Lev 0.00 ng/mL + EPI 4.69 uM): 87%
- percentage resazurin turnover ([2]; Lev 0.00 ng/mL + EPI 9.38 uM): 112% and 110% and 90%
- Median REMA values (percentage resazurin turnover) ([2]; Lev 0.00 ng/mL + EPI 9.38 uM): 110%
- percentage resazurin turnover ([2]; Lev 0.00 ng/mL + EPI 18.75 uM): 116% and 136% and 109%
- Median REMA values (percentage resazurin turnover) ([2]; Lev 0.00 ng/mL + EPI 18.75 uM): 116%
- percentage resazurin turnover ([2]; Lev 0.00 ng/mL + EPI 37.50 uM): 154% and 197% and 115%
- Median REMA values (percentage resazurin turnover) ([2]; Lev 0.00 ng/mL + EPI 37.50 uM): 154%
- percentage resazurin turnover ([2]; Lev 0.00 ng/mL + EPI 75.00 uM): 134% and 143% and 152%
- Median REMA values (percentage resazurin turnover) ([2]; Lev 0.00 ng/mL + EPI 75.00 uM): 143%
- percentage resazurin turnover ([2]; Lev 0.00 ng/mL + EPI 150.00 uM): 129% and 156% and 124%
- Median REMA values (percentage resazurin turnover) ([2]; Lev 0.00 ng/mL + EPI 150.00 uM): 129%
- percentage resazurin turnover ([2]; Lev 0.00 ng/mL + EPI 300 uM): 162% and 135% and 125%
- Median REMA values (percentage resazurin turnover) ([2]; Lev 0.00 ng/mL + EPI 300 uM): 135%
- checkerboard growth readout ([3]; EPI 2.3 µM): 91
- checkerboard growth readout ([3]; EPI 4.7 µM): 95
- checkerboard growth readout ([3]; EPI 9.4 µM): 107
- checkerboard growth readout ([3]; EPI 19 µM): 112
- checkerboard growth readout ([3]; EPI 38 µM): 147
- checkerboard growth readout ([3]; EPI 75 µM): 161
- checkerboard growth readout ([3]; EPI 150 µM): 143
- checkerboard growth readout ([3]; EPI 300 µM): 143
- boosting of levofloxacin activity, in words ([3]; K. pneumoniae AcrB^V448E): maintained
- Median REMA values ([3]; PABN 2.34 uM): 91%
- percentage resazurin turnover ([3]; PABN 2.34 uM): 108% and 91% and 74%
- Median REMA values ([3]; PABN 4.69 uM): 95%
- percentage resazurin turnover ([3]; PABN 4.69 uM): 95% and 102% and 74%
- Median REMA values ([3]; PABN 9.38 uM): 107%
- percentage resazurin turnover ([3]; PABN 9.38 uM): 113% and 107% and 80%
- Median REMA values ([3]; PABN 18.75 uM): 112%
- percentage resazurin turnover ([3]; PABN 18.75 uM): 120% and 112%
- Median REMA values ([3]; PABN 37.50 uM): 147%
- percentage resazurin turnover ([3]; PABN 37.50 uM): 147% and 150% and 121%
- Median REMA values ([3]; PABN 75.00 uM): 161%
- percentage resazurin turnover ([3]; PABN 75.00 uM): 161% and 123% and 162%
- Median REMA values ([3]; PABN 150.00 uM): 143%
- percentage resazurin turnover ([3]; PABN 150.00 uM): 143% and 146% and 114%
- Median REMA values ([3]; PABN 300 uM): 143%
- percentage resazurin turnover ([3]; PABN 300 uM): 143% and 112%
- checkerboard growth readout ([4]; EPI 2.3 µM): 83
- checkerboard growth readout ([4]; EPI 4.7 µM): 85
- checkerboard growth readout ([4]; EPI 9.4 µM): 97
- checkerboard growth readout ([4]; EPI 19 µM): 113
- checkerboard growth readout ([4]; EPI 38 µM): 126
- checkerboard growth readout ([4]; EPI 75 µM): 200
- checkerboard growth readout ([4]; EPI 150 µM): 177
- checkerboard growth readout ([4]; EPI 300 µM): 157
- reversion of RamR-mediated levofloxacin resistance, in words ([4]; K. pneumoniae RamR^mut): only be partially reverted
- checkerboard growth readout ([5]; EPI 2.3 µM): 79
- checkerboard growth readout ([5]; EPI 4.7 µM): 95
- checkerboard growth readout ([5]; EPI 9.4 µM): 80
- checkerboard growth readout ([5]; EPI 19 µM): 121
- checkerboard growth readout ([5]; EPI 38 µM): 158
- checkerboard growth readout ([5]; EPI 75 µM): 211
- checkerboard growth readout ([5]; EPI 150 µM): 226
- checkerboard growth readout ([5]; EPI 300 µM): 191
